Reference: PMC9671100 (RSC Advances, 2022)
“And” between values parts separate entries of the source, which are not always exact repeats. Equal entries are not always repeated.

Tests used:
[1] = ABTS radical scavenging activity; settings: for ABTS EC50: 732 nm, 6 min; for Fold = IC50 of ascorbic acid/IC50 of compounds 5a–p: ratio of the ABTS values relative to ascorbic acid
[2] = DPPH radical scavenging activity; settings: 517 nm, 5 min at room temperature
[3] = target: BChE (from equine serum) (Equus caballus, UniProt P81908); experiment: Anticholinesterase assay; assay type: biochemical; settings: for IC50: BChE IC50, IC50 ± SEM, Ellman method, 30 min incubation, triplicate
[4] = target: AChE (from Electrophorus electricus) (Electrophorus electricus, UniProt O42275); experiment: Anticholinesterase assay; assay type: biochemical
AChE (from Electrophorus electricus), sequence (O42275 24-633): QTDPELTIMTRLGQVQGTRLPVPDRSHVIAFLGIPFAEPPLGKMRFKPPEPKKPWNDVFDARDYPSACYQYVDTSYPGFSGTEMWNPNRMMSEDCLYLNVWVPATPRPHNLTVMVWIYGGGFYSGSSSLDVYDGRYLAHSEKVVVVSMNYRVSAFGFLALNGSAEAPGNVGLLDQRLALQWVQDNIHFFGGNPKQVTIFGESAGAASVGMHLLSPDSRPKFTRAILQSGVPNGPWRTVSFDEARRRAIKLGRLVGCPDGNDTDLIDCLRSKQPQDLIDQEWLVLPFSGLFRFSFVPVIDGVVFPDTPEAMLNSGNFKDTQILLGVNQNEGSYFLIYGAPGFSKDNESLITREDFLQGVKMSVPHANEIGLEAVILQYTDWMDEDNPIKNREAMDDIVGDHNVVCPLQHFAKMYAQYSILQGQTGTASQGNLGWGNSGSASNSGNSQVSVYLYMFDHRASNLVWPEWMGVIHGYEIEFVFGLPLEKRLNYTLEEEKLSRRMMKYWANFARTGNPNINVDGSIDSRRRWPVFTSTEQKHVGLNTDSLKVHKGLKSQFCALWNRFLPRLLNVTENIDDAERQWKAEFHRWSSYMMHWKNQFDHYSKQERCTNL

BChE (from equine serum), sequence (P81908 whole entry): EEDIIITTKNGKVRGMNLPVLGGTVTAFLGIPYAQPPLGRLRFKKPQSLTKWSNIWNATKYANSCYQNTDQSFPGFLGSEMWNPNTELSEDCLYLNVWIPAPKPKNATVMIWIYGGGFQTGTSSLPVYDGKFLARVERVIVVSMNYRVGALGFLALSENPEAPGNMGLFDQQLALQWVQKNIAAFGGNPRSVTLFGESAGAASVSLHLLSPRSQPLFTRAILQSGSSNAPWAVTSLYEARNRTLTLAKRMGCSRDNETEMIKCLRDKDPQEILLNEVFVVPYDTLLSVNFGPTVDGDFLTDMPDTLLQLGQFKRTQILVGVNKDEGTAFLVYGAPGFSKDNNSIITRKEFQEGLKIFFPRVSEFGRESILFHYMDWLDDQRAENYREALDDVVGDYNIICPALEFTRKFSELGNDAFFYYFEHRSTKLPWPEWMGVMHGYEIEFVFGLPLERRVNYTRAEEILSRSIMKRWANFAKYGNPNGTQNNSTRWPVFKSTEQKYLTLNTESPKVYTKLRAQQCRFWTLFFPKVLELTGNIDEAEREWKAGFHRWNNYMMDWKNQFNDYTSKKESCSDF

Compound | ABTS EC50 [1] [µg/mL] | Fold = IC50 of ascorbic acid/IC50 of compounds 5a–p [1] | DPPH EC50 [2] [µg/mL] | IC50 [3] [µM] | IC50 [4] [µM] | times less potent than galantamine against BChE ([3]; IC50 ratio versus galantamine)
O=C1O[C@H]([C@@H](O)CO)C(O)=C1O [Ascorbic acid, reference compound] | 27.62 ± 3.5 | 1 | 1.5 ± 0.2 |  |  | 
Cc1ccc(-c2c(C#N)c(N)nc3c2CCc2nc4c(cc2-3)c(C)nn4-c2ccccc2)cc1 [5b, 2-Amino-10-methyl-8-phenyl-4-(p-tolyl)-6,8-dihydro-5H-pyrazolo[3,4-j][1,7]phenanthroline-3-carbonitrile] | 98.77 | 0.28 | >100 | > 847 |  | 
Cc1nn(-c2ccccc2)c2nc3c(cc12)-c1nc(N)c(C#N)c(-c2ccccc2)c1CC3 [5a, 2-Amino-10-methyl-4,8-diphenyl-6,8-dihydro-5H-pyrazolo[3,4-j][1,7]phenanthroline-3-carbonitrile] | >100 |  | >100 | > 875 | 259.87 ± 0.03 | 
CCOc1nc2c(c(-c3ccccc3)c1C#N)CCc1nc3c(cc1-2)c(C)nn3-c1ccccc1 [5p, 2-Ethoxy-10-methyl-4,8-diphenyl-6,8-dihydro-5H-pyrazolo[3,4-j][1,7]phenanthroline-3-carbonitrile] | >100 |  | >100 | ≥ 375 | 329.67 ± 0.01 | 
Cc1nn(-c2ccccc2)c2nc3c(cc12)-c1nc(N)c(C#N)c(-c2ccc(O)cc2)c1CC3 [5g, 2-Amino-4-(4-hydroxyphenyl)-10-methyl-8-phenyl-6,8-dihydro-5H-pyrazolo[3,4-j][1,7]phenanthroline-3-carbonitrile] | <3 | more than nine times | >100 |  |  | 
COc1cc(-c2c(C#N)c(N)nc3c2CCc2nc4c(cc2-3)c(C)nn4-c2ccccc2)cc(OC)c1OC [5j, 2-Amino-10-methyl-8-phenyl-4-(3,4,5-trimethoxyphenyl)-6,8-dihydro-5H-pyrazolo[3,4-j][1,7]phenanthroline-3-carbonitrile] | >100 |  | >100 | ≥ 375 | 224.54 ± 0.018 | 
Cc1nn(-c2ccccc2)c2nc3c(cc12)-c1nc(N)c(C#N)c(-c2ccc(C#N)cc2)c1CC3 [5h, 2-Amino-4-(4-cyanophenyl)-10-methyl-8-phenyl-6,8-dihydro-5H-pyrazolo[3,4-j][1,7]phenanthroline-3-carbonitrile] | >100 |  | >100 | ≥ 375 | 85.48 ± 0.14 | 
Cc1nn(-c2ccccc2)c2nc3c(cc12)-c1nc(N)c(C#N)c(-c2ccc4c(c2)OCO4)c1CC3 [5l, 2-Amino-4-(benzo[d][1,3]dioxol-5-yl)-10-methyl-8-phenyl-6,8-dihydro-5H-pyrazolo[3,4-j][1,7]phenanthroline-3-carbonitrile] | >100 |  | >100 | 119 | 167.94 ± 0.04 | 15
Cc1nn(-c2ccccc2)c2nc3c(cc12)-c1nc(N)c(C#N)c(-c2cc4ccccc4nc2Cl)c1CC3 [5f, 2-Amino-4-(2-chloroquinolin-3-yl)-10-methyl-8-phenyl-6,8-dihydro-5H-pyrazolo[3,4-j][1,7]phenanthroline-3-carbonitrile] | 3.10 | 9 and 8.91 | >100 | ≥ 375 | 135.33 ± 0.04 | 
Cc1nn(-c2ccccc2)c2nc3c(cc12)-c1nc(N)c(C#N)c(-c2ccc(Cl)cc2)c1CC3 [5d, 2-Amino-4-(4-chlorophenyl)-10-methyl-8-phenyl-6,8-dihydro-5H-pyrazolo[3,4-j][1,7]phenanthroline-3-carbonitrile] | >100 |  | >100 | > 810 |  | 
Cc1nn(-c2ccccc2)c2nc3c(cc12)-c1nc(N)c(C#N)c(-c2ccc([N+](=O)[O-])cc2)c1CC3 [5e, 2-Amino-10-methyl-4-(4-nitrophenyl)-8-phenyl-6,8-dihydro-5H-pyrazolo[3,4-j][1,7]phenanthroline-3-carbonitrile] | 11.51 | 2 and 2.40 | 26.71 | ≥ 375 | 191.28 ± 0.015 | 
